# System: calf thymus DNA
# Assay: BPDE-dG adduct formation by cigarette smoke solution in a cell-free system with DNA and (+)-BP-7,8-diol
substance,measurement,setting,value
Catalase,% BPDE-dG relative to standard CS,"CSS diluted 1:19 with PBS pH 7.4, (+) BaP-7,8-diol, room temperature 2 h",12%
same,effect on the (−)-anti-BPDE-dG produced,in words,inhibited the formation of the adduct

# Source: US20110155157A1, “CIGARETTE FILTER CONTAINING ROSEMARY EXTRACT AND A METHOD OF REDUCING DNA DAMAGE CAUSED BY HARMFUL AGENTS IN CIGARETTE SMOKE BY USE OF SAID FILTER” (priority 2006, published 2011)
